The values that follow come from patent US6638973B2, “Taxane formulations” (FSU Research Foundation, Inc., priority 2000, dated 2003).

Where only a bound is given, the exact number is not on record here.

One assay deals with HCT116 cells. The assay is described as follows: In vitro cytotoxicity measured by the cell colony formation assay. It is filed as cell-based. The following applies: HCT116 cells, 72 h incubation with drug, colonies counted after 7 days; ID50 = drug concentration producing 50% inhibition of colony formation; read-out: IN VITRO ID 50 (nm) HCT116. A digest of the protocol:
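Colony-forming survival was scored 7 days after a 72 h, 37 °C compound exposure followed by washout into fresh medium.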
Take `CCOC(=O)O[C@H]1C(=O)[C@@]2(C)C([C@H](OC(=O)c3ccccc3)[C@]3(O)C[C@H](OC(=O)[C@H](O)[C@@H](NC(=O)c4ccco4)c4ccco4)C(C)=C1C3(C)C)[C@]1(OC(C)=O)CO[C@@H]1C[C@@H]2O` (stereo partly drawn) [Compound 3911]: the IC50 is below 1 nM.
The same measure, in the same setting: under `CCCC(=O)N[C@@H](c1ccco1)[C@@H](O)C(=O)O[C@H]1C[C@@]2(O)[C@@H](OC(=O)c3ccccc3)C3[C@](C)(C(=O)[C@H](OC(=O)OCC)C(=C1C)C2(C)C)[C@@H](O)C[C@H]1OC[C@@]31OC(C)=O` (stereo partly drawn) [Compound 3929] stands below 1 nM; under `CCOC(=O)O[C@H]1C(=O)[C@@]2(C)C([C@H](OC(=O)c3ccccc3)[C@]3(O)C[C@H](OC(=O)[C@H](O)[C@@H](NC(=O)OC(C)C)c4ccco4)C(C)=C1C3(C)C)[C@]1(OC(C)=O)CO[C@@H]1C[C@@H]2O` (stereo partly drawn) [Compound 3963], below 1 nM; under `CC=CC(=O)NC(c1ccco1)C(O)C(=O)OC1CC2(O)C(OC(=O)c3ccccc3)C3C4(OC(C)=O)COC4CC(O)C3(C)C(=O)C(OC(=O)OCC)C(=C1C)C2(C)C` (stereo not drawn) [Compound 4000], below 1 nM.
Regarding `CCOC(=O)N[C@@H](c1ccco1)[C@@H](O)C(=O)O[C@H]1C[C@@]2(O)[C@@H](OC(=O)c3ccccc3)C3[C@](C)(C(=O)[C@H](OC(=O)OCC)C(=C1C)C2(C)C)[C@@H](O)C[C@H]1OC[C@@]31OC(C)=O` (stereo partly drawn) [Compound 4020], the IC50 is below 1 nM.
On to `CCOC(=O)O[C@H]1C(=O)[C@@]2(C)C([C@H](OC(=O)c3ccccc3)[C@]3(O)C[C@H](OC(=O)[C@H](O)[C@@H](NC(=O)c4cccs4)c4ccco4)C(C)=C1C3(C)C)[C@]1(OC(C)=O)CO[C@@H]1C[C@@H]2O` (stereo partly drawn) [Compound 4088], for which the IC50 is below 10 nM.

The same assay, now with this note: HCT116 colony formation; 72 h drug incubation, colonies counted after 7 days; Example 5, C-7 ester/C-10 hydroxy taxanes; read-out: IN VITRO ID 50 (nm) HCT116.
For the compound `C/C=C/C(=O)N[C@@H](c1cccs1)[C@@H](O)C(=O)O[C@H]1C[C@@]2(O)[C@@H](OC(=O)c3ccccc3)C3[C@](C)(C(=O)[C@H](O)C(=C1C)C2(C)C)[C@@H](OC(=O)CC)C[C@H]1OC[C@@]31OC(C)=O` (stereo partly drawn) [Compound 3560], the IC50 was below 1 nM.
For `CCOC(=O)N[C@@H](c1ccco1)[C@@H](O)C(=O)O[C@H]1C[C@@]2(O)[C@@H](OC(=O)c3ccccc3)C3[C@](C)(C(=O)[C@H](O)C(=C1C)C2(C)C)[C@@H](OC(=O)CC)C[C@H]1OC[C@@]31OC(C)=O` (stereo partly drawn) [Compound 3611], the IC50 is below 1 nM.
For `CCC(=O)O[C@H]1C[C@H]2OC[C@@]2(OC(C)=O)C2[C@H](OC(=O)c3ccccc3)[C@]3(O)C[C@H](OC(=O)[C@H](O)[C@@H](NC(=O)c4ccco4)c4ccco4)C(C)=C([C@@H](O)C(=O)[C@@]21C)C3(C)C` (stereo partly drawn) [Compound 3629], the IC50 was below 1 nM.
On the same count and under the same terms, the value for `CCC(=O)O[C@H]1C[C@H]2OC[C@@]2(OC(C)=O)C2[C@H](OC(=O)c3ccccc3)[C@]3(O)C[C@H](OC(=O)[C@H](O)[C@@H](NC(=O)c4cccs4)c4ccco4)C(C)=C([C@@H](O)C(=O)[C@@]21C)C3(C)C` (stereo partly drawn) [Compound 3632] was below 1 nM.
The same measure, in the same setting: the value for `C/C=C/C(=O)N[C@@H](c1ccco1)[C@@H](O)C(=O)O[C@H]1C[C@@]2(O)[C@@H](OC(=O)c3ccccc3)C3[C@](C)(C(=O)[C@H](O)C(=C1C)C2(C)C)[C@@H](OC(=O)CC)C[C@H]1OC[C@@]31OC(C)=O` (stereo partly drawn) [Compound 3708] was below 1 nM.
The same measure, in the same setting: under `CCC(=O)O[C@H]1C[C@H]2OC[C@@]2(OC(C)=O)C2[C@H](OC(=O)c3ccccc3)[C@]3(O)C[C@H](OC(=O)[C@H](O)[C@@H](NC(=O)c4ccccc4)c4ccco4)C(C)=C([C@@H](O)C(=O)[C@@]21C)C3(C)C` (stereo partly drawn) [Compound 4017] stands below 10 nM; under `CCOC(=O)N[C@@H](c1cccs1)[C@@H](O)C(=O)O[C@H]1C[C@@]2(O)[C@@H](OC(=O)c3ccccc3)C3[C@](C)(C(=O)[C@H](O)C(=C1C)C2(C)C)[C@@H](OC(=O)CC)C[C@H]1OC[C@@]31OC(C)=O` (stereo partly drawn) [Compound 4044], below 1 nM.
As to `CCC(=O)O[C@H]1C[C@H]2OC[C@@]2(OC(C)=O)C2[C@H](OC(=O)c3ccccc3)[C@]3(O)C[C@H](OC(=O)[C@H](O)[C@@H](NC(=O)c4cccnc4)c4cccs4)C(C)=C([C@@H](O)C(=O)[C@@]21C)C3(C)C` (stereo partly drawn) [Compound 4106], the IC50 is below 10 nM.

The assay is the same for the next values; noted with them: HCT116 colony formation; 72 h drug incubation, colonies counted after 7 days; Example 10, C-10 ester/C-7 hydroxy taxanes; read-out: IN VITRO ID 50 (nm) HCT116.
As for `CCOC(=O)N[C@@H](c1ccco1)[C@@H](O)C(=O)O[C@H]1C[C@@]2(O)[C@@H](OC(=O)c3ccccc3)C3[C@](C)(C(=O)[C@H](OC(=O)CC)C(=C1C)C2(C)C)[C@@H](O)C[C@H]1OC[C@@]31OC(C)=O` (stereo partly drawn) [Compound 3535], the IC50 is below 1 nM.
Consider `C/C=C/C(=O)N[C@@H](c1cccs1)[C@@H](O)C(=O)O[C@H]1C[C@@]2(O)[C@@H](OC(=O)c3ccccc3)C3[C@](C)(C(=O)[C@H](OC(=O)CCC)C(=C1C)C2(C)C)[C@@H](O)C[C@H]1OC[C@@]31OC(C)=O` (stereo partly drawn) [Compound 3595], for which the IC50 was below 1 nM.
`CCC(=O)O[C@H]1C(=O)[C@@]2(C)C([C@H](OC(=O)c3ccccc3)[C@]3(O)C[C@H](OC(=O)[C@H](O)[C@@H](NC(=O)c4cccs4)c4ccco4)C(C)=C1C3(C)C)[C@]1(OC(C)=O)CO[C@@H]1C[C@@H]2O` (stereo partly drawn) [Compound 3644]: the IC50 is below 1 nM.
The same measure, in the same setting: the value for `CCCC(=O)O[C@H]1C(=O)[C@@]2(C)C([C@H](OC(=O)c3ccccc3)[C@]3(O)C[C@H](OC(=O)[C@H](O)[C@@H](NC(=O)c4cccs4)c4ccco4)C(C)=C1C3(C)C)[C@]1(OC(C)=O)CO[C@@H]1C[C@@H]2O` (stereo partly drawn) [Compound 3656] was below 1 nM; that for `CC(=O)O[C@@]12CO[C@@H]1C[C@H](O)[C@@]1(C)C(=O)[C@H](OC(=O)C3CC3)C3=C(C)[C@@H](OC(=O)[C@H](O)[C@@H](NC(=O)c4cccs4)c4ccco4)C[C@@](O)([C@@H](OC(=O)c4ccccc4)C12)C3(C)C` (stereo partly drawn) [Compound 3663] was below 1 nM; that for `CCOC(=O)N[C@@H](c1ccco1)[C@@H](O)C(=O)O[C@H]1C[C@@]2(O)[C@@H](OC(=O)c3ccccc3)C3[C@](C)(C(=O)[C@H](OC(=O)C4CC4)C(=C1C)C2(C)C)[C@@H](O)C[C@H]1OC[C@@]31OC(C)=O` (stereo partly drawn) [Compound 3677] was below 1 nM.
Same read-out and setting: under `CCCC(=O)O[C@H]1C(=O)[C@@]2(C)C([C@H](OC(=O)c3ccccc3)[C@]3(O)C[C@H](OC(=O)[C@H](O)[C@@H](NC(=O)c4ccco4)c4ccco4)C(C)=C1C3(C)C)[C@]1(OC(C)=O)CO[C@@H]1C[C@@H]2O` (stereo partly drawn) [Compound 3686] stands below 1 nM.
As for `CCCC(=O)O[C@H]1C(=O)[C@@]2(C)C([C@H](OC(=O)c3ccccc3)[C@]3(O)C[C@H](OC(=O)[C@H](O)[C@@H](NC(=O)OCC)c4ccco4)C(C)=C1C3(C)C)[C@]1(OC(C)=O)CO[C@@H]1C[C@@H]2O` (stereo partly drawn) [Compound 3693], the IC50 is below 1 nM.
On to `CCC(=O)O[C@H]1C(=O)[C@@]2(C)C([C@H](OC(=O)c3ccccc3)[C@]3(O)C[C@H](OC(=O)[C@H](O)[C@@H](NC(=O)c4ccco4)c4ccco4)C(C)=C1C3(C)C)[C@]1(OC(C)=O)CO[C@@H]1C[C@@H]2O` (stereo partly drawn) [Compound 3818], for which the IC50 was below 1 nM.
On the same count and under the same terms, under `CC(=O)O[C@@]12CO[C@@H]1C[C@H](O)[C@@]1(C)C(=O)[C@H](OC(=O)C3CC3)C3=C(C)[C@@H](OC(=O)[C@H](O)[C@@H](NC(=O)OC(C)C)c4ccco4)C[C@@](O)([C@@H](OC(=O)c4ccccc4)C12)C3(C)C` (stereo partly drawn) [Compound 3853] stands below 1 nM.
The same measure, in the same setting: under `CC(=O)O[C@@]12CO[C@@H]1C[C@H](O)[C@@]1(C)C(=O)[C@H](OC(=O)C3CC3)C3=C(C)[C@@H](OC(=O)[C@H](O)[C@@H](NC(=O)c4ccco4)c4ccco4)C[C@@](O)([C@@H](OC(=O)c4ccccc4)C12)C3(C)C` (stereo partly drawn) [Compound 3866] stands below 1 nM.
On the same count and under the same terms, under `CCCC(=O)O[C@H]1C(=O)[C@@]2(C)C([C@H](OC(=O)c3ccccc3)[C@]3(O)C[C@H](OC(=O)[C@H](O)[C@@H](NC(=O)OC(C)C)c4cccs4)C(C)=C1C3(C)C)[C@]1(OC(C)=O)CO[C@@H]1C[C@@H]2O` (stereo partly drawn) [Compound 3909] stands below 1 nM; under `CCCC(=O)O[C@H]1C(=O)[C@@]2(C)C([C@H](OC(=O)c3ccccc3)[C@]3(O)C[C@H](OC(=O)[C@H](O)[C@@H](NC(=O)OCC(C)C)c4ccco4)C(C)=C1C3(C)C)[C@]1(OC(C)=O)CO[C@@H]1C[C@@H]2O` (stereo partly drawn) [Compound 3957], below 10 nM; under `C/C=C/C(=O)N[C@@H](c1ccco1)[C@@H](O)C(=O)O[C@H]1C[C@@]2(O)[C@@H](OC(=O)c3ccccc3)C3[C@](C)(C(=O)[C@H](OC(=O)C4CC4)C(=C1C)C2(C)C)[C@@H](O)C[C@H]1OC[C@@]31OC(C)=O` (stereo partly drawn) [Compound 3971], below 1 nM.
As to `C/C=C/C(=O)N[C@@H](c1ccco1)[C@@H](O)C(=O)O[C@H]1C[C@@]2(O)[C@@H](OC(=O)c3ccccc3)C3[C@](C)(C(=O)[C@H](OC(=O)CC)C(=C1C)C2(C)C)[C@@H](O)C[C@H]1OC[C@@]31OC(C)=O` (stereo partly drawn) [Compound 3982], the IC50 is below 1 nM.
With `C/C=C/C(=O)N[C@@H](c1ccco1)[C@@H](O)C(=O)O[C@H]1C[C@@]2(O)[C@@H](OC(=O)c3ccccc3)C3[C@](C)(C(=O)[C@H](OC(=O)CCC)C(=C1C)C2(C)C)[C@@H](O)C[C@H]1OC[C@@]31OC(C)=O` (stereo partly drawn) [Compound 3994], the IC50 was below 1 nM.
Take `CCOC(=O)N[C@@H](c1cccs1)[C@@H](O)C(=O)O[C@H]1C[C@@]2(O)[C@@H](OC(=O)c3ccccc3)C3[C@](C)(C(=O)[C@H](OC(=O)C4CC4)C(=C1C)C2(C)C)[C@@H](O)C[C@H]1OC[C@@]31OC(C)=O` (stereo partly drawn) [Compound 4051]: the IC50 is below 1 nM.
On to `CCCC(=O)N[C@@H](c1ccco1)[C@@H](O)C(=O)O[C@H]1C[C@@]2(O)[C@@H](OC(=O)c3ccccc3)C3[C@](C)(C(=O)[C@H](OC(=O)C4CC4)C(=C1C)C2(C)C)[C@@H](O)C[C@H]1OC[C@@]31OC(C)=O` (stereo partly drawn) [Compound 4062], for which the IC50 was below 1 nM.
In the case of `CC(=O)O[C@@]12CO[C@@H]1C[C@H](O)[C@@]1(C)C(=O)[C@H](OC(=O)C3CC3)C3=C(C)[C@@H](OC(=O)[C@H](O)[C@@H](NC(=O)c4cccnc4)c4cccs4)C[C@@](O)([C@@H](OC(=O)c4ccccc4)C12)C3(C)C` (stereo partly drawn) [Compound 4112], the IC50 is below 10 nM.
